Consider 15 compounds from PubChem BioAssay AID328 (DTP/NCI, 2004).

Several values for one entry are separate records, joined by “and”; a condition that tells them apart may be missing. Identical values can stand only once. Inconclusive results and toxic doses are left out.

The assay has as its system BDF1 mice, P388 leukemia ip, median survival T/C. In words: NCI In Vivo Anticancer Drug Screen. Data for tumor model P388 Leukemia (intraperitoneal) in B6D2F1 (BDF1) mice. Particulars: endpoint: median survival time, higher = longer survival. The procedure, abridged: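 T/C = treated-group survival ÷ vehicle-control survival; tumour transplanted into mice before dosing.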

Setting [1] is: dose: 25.0 mg/kg/injection, schedule: Q04DX003 (ip), vehicle: saline.
The mark [2] stands for this setting: dose: 100.0 mg/kg/injection, schedule: Q04DX003 (ip), vehicle: saline sonified.
[3] abbreviates: dose: 200.0 mg/kg/injection, schedule: Q01DX009 (ip), vehicle: saline with Tween-80.
[4] abbreviates: dose: 200.0 mg/kg/injection, schedule: Q04DX003 (ip), vehicle: saline sonified.
[5] abbreviates: dose: 400.0 mg/kg/injection, schedule: Q01DX009 (ip), vehicle: saline with Tween-80.
Where [6] appears, read: dose: 400.0 mg/kg/injection, schedule: Q04DX003 (ip), vehicle: saline sonified.
The mark [7] stands for this setting: dose: 100.0 mg/kg/injection, schedule: Q01DX001 (ip), vehicle: saline with Tween-80.
Setting [8] is: dose: 100.0 mg/kg/injection, schedule: Q01DX009 (ip), vehicle: saline with Tween-80.

As for `C[N+](C)(C)c1ccc2ccccc2n1`, the T/C was 122 % of control (dose: 3.12 mg/kg/injection, schedule: Q01DX001 (ip), vehicle: Klucel (hydroxypropylcellulose) (HPC)); 110 % of control (dose: 6.25 mg/kg/injection, schedule: Q01DX001 (ip), vehicle: Klucel (hydroxypropylcellulose) (HPC)); 122 % of control (dose: 12.5 mg/kg/injection, schedule: Q01DX001 (ip), vehicle: Klucel (hydroxypropylcellulose) (HPC)); 112 % of control (dose: 18.5 mg/kg/injection, schedule: Q01DX001 (ip), vehicle: Klucel (hydroxypropylcellulose) (HPC)); 120 % of control (dose: 25.0 mg/kg/injection, schedule: Q01DX001 (ip), vehicle: saline); 118 % of control (dose: 50.0 mg/kg/injection, schedule: Q01DX001 (ip), vehicle: saline).
On to `CCCCCCCCCCCCCCCC[N+](C)(C)c1nc(Cl)nc(Cl)n1`, for which the T/C is 110 % of control (dose: 7.5 mg/kg/injection, schedule: Q01DX009 (ip), vehicle: saline); 109 % of control (dose: 7.5 mg/kg/injection, schedule: Q04DX003 (ip), vehicle: saline); 105 % of control (dose: 15.0 mg/kg/injection, schedule: Q01DX009 (ip), vehicle: saline); 113 % of control (dose: 15.0 mg/kg/injection, schedule: Q04DX003 (ip), vehicle: saline); 105 % of control (dose: 30.0 mg/kg/injection, schedule: Q01DX009 (ip), vehicle: saline); 109 % of control (dose: 30.0 mg/kg/injection, schedule: Q04DX003 (ip), vehicle: saline). Further, where the note is “dose: 60.0 mg/kg/injection, schedule: Q04DX003 (ip), vehicle: saline”, the T/C is 118 % of control.
With `COc1cc(-c2ccc(Nc3ccccc3C(=O)O)c(OC)c2)ccc1N`, the T/C by setting is: (dose: 25.0 mg/kg/injection, schedule: Q01DX009 (ip), vehicle: saline with Tween-80) 110 % of control; (dose: 33.0 mg/kg/injection, schedule: Q01DX009 (ip), vehicle: saline with Tween-80) 109 % of control; (dose: 75.0 mg/kg/injection, schedule: Q01DX009 (ip), vehicle: saline with Tween-80) 163 % of control.
As to `COc1cc(N2CCOCC2)ccc1N`, the T/C by setting is: (dose: 1.56 mg/kg/injection, schedule: Q01DX009 (ip), vehicle: saline) 154 % of control; (dose: 6.25 mg/kg/injection, schedule: Q01DX009 (ip), vehicle: saline) 122 % of control; under setting [1], 118 % of control; (dose: 44.0 mg/kg/injection, schedule: Q04DX003 (ip), vehicle: saline) 108 % of control; (dose: 66.0 mg/kg/injection, schedule: Q04DX003 (ip), vehicle: saline) 116 % of control.
For the compound `O=C(O)C1CC(c2ccccc2)OC1=O` (stereo unspecified), the T/C by setting is: (dose: 100.0 mg/kg/injection, schedule: Q01DX009 (ip), vehicle: gum acacia) 92 % of control; (dose: 100.0 mg/kg/injection, schedule: Q04DX003 (ip), vehicle: gum acacia) 100 % of control; (dose: 200.0 mg/kg/injection, schedule: Q01DX009 (ip), vehicle: gum acacia) 92 % of control; (dose: 200.0 mg/kg/injection, schedule: Q04DX003 (ip), vehicle: gum acacia) 104 % of control; (dose: 400.0 mg/kg/injection, schedule: Q04DX003 (ip), vehicle: gum acacia) 108 % of control.
Regarding `C=C(C)C12OC3(c4ccccc4)OC1C1C4OC4(CO)C(O)C4(O)C(=O)C(C)=CC4C1(O3)C(C)C2OC(=O)/C=C/C=C/C=C/CCC` (stereo unspecified), the T/C was 109 % of control (dose: 6.3 micrograms/kg/injection, schedule: Q## X009 (ip), vehicle: saline with Tween-80); 106 % of control (dose: 12.5 micrograms/kg/injection, schedule: Q## X009 (ip), vehicle: saline with Tween-80); 109 % of control (dose: 25.0 micrograms/kg/injection, schedule: Q## X009 (ip), vehicle: saline with Tween-80); 106 % of control (dose: 50.0 micrograms/kg/injection, schedule: Q## X009 (ip), vehicle: saline with Tween-80); 168 % of control (dose: 100.0 micrograms/kg/injection, schedule: Q## X009 (ip), vehicle: saline with Tween-80).
On to `NC(=O)c1cn(C2OC(CO)C(O)C2O)c2ncn3ccnc3c12` (stereo unspecified), for which the T/C (dose: 6.25 mg/kg/injection, schedule: Q04DX003 (ip), vehicle: saline) is 118 % of control; the T/C under setting [1] is 115 % of control; the T/C (dose: 100.0 mg/kg/injection, schedule: Q04DX003 (ip), vehicle: saline) was 118 % of control.
In the case of `Cc1ccc(Oc2ccc3cc[n+](C)cc3c2)cc1`, the T/C (dose: 2.75 mg/kg/injection, schedule: Q01DX009 (ip), vehicle: saline) is 94 % of control; the T/C (dose: 4.12 mg/kg/injection, schedule: Q01DX009 (ip), vehicle: saline) is 105 % of control; the T/C (dose: 9.5 mg/kg/injection, schedule: Q01DX009 (ip), vehicle: saline) was 99 % of control; the T/C (dose: 12.5 mg/kg/injection, schedule: Q01DX009 (ip), vehicle: saline) was 118 % of control.
`CN(/N=N/N(C)c1ccccc1)c1ccccc1`: the T/C is 110 % of control under setting [2]; 120 % of control under setting [3]; 110 % of control under setting [4]; 110 % of control under setting [5]; 100 % of control under setting [6].
In the case of `S=C(Nc1ccccc1)N(C1CCCCC1)C1CCCCC1`, the T/C under setting [7] is 100 % of control; the T/C (dose: 200.0 mg/kg/injection, schedule: Q01DX001 (ip), vehicle: saline with Tween-80) was 103 % of control; the T/C under setting [3] was 155 % of control; the T/C (dose: 400.0 mg/kg/injection, schedule: Q01DX001 (ip), vehicle: saline with Tween-80) is 103 % of control.
Consider `O=C(O)C1=CC(O)C(O)C(O)C1` (stereo unspecified), for which the T/C is, setting by setting: (dose: 50.0 mg/kg/injection, schedule: Q01DX009 (ip), vehicle: saline) 87 % of control; (dose: 100.0 mg/kg/injection, schedule: Q01DX009 (ip), vehicle: saline) 100 % of control; under setting [2], 100 % of control; (dose: 200.0 mg/kg/injection, schedule: Q01DX009 (ip), vehicle: saline) 91 % of control; under setting [4], 100 % of control; under setting [6], 100 % of control.
`O=C(Nc1cc(Cl)c(NC(=O)c2ccccc2)c(Cl)c1)c1ccccc1`: the T/C by setting is: (dose: 12.5 mg/kg/injection, schedule: Q01DX001 (ip), vehicle: saline with Tween-80) 100 % of control; (dose: 25.0 mg/kg/injection, schedule: Q01DX001 (ip), vehicle: saline with Tween-80) 90 % of control and 95 % of control; (dose: 50.0 mg/kg/injection, schedule: Q01DX001 (ip), vehicle: saline with Tween-80) 90 % of control; under setting [7], 95 % of control.
On to `CCCCCCC(CCCCCC)(CCCCCC)B1OCCO1`, for which the T/C is, setting by setting: under setting [8], 100 % of control; (dose: 100.0 mg/kg/injection, schedule: Q04DX003 (ip), vehicle: saline with Tween-80) 100 % of control; under setting [3], 104 % of control; (dose: 200.0 mg/kg/injection, schedule: Q04DX003 (ip), vehicle: saline with Tween-80) 109 % of control; under setting [5], 123 % of control; (dose: 400.0 mg/kg/injection, schedule: Q04DX003 (ip), vehicle: saline with Tween-80) 104 % of control.
As for `CCCCCCCCCCCCCCCC(=O)OCc1cc(=O)c(O)co1`, the T/C reads like this: (dose: 100.0 mg/kg/injection, schedule: Q01DX009 (ip), vehicle: Klucel (hydroxypropylcellulose) (HPC)) 118 % of control; (dose: 100.0 mg/kg/injection, schedule: Q04DX003 (ip), vehicle: Klucel (hydroxypropylcellulose) (HPC)) 104 % of control; (dose: 200.0 mg/kg/injection, schedule: Q01DX009 (ip), vehicle: Klucel (hydroxypropylcellulose) (HPC)) 109 % of control; (dose: 200.0 mg/kg/injection, schedule: Q04DX003 (ip), vehicle: Klucel (hydroxypropylcellulose) (HPC)) 104 % of control; (dose: 400.0 mg/kg/injection, schedule: Q01DX009 (ip), vehicle: Klucel (hydroxypropylcellulose) (HPC)) 95 % of control; (dose: 400.0 mg/kg/injection, schedule: Q04DX003 (ip), vehicle: Klucel (hydroxypropylcellulose) (HPC)) 113 % of control.
In the case of `O=C(/C=C/c1ccc(OCc2ccccc2)cc1)c1cccs1`, the T/C was 98 % of control (dose: 50.0 mg/kg/injection, schedule: Q01DX009 (ip), vehicle: saline with Tween-80) and 92 % of control under setting [8].
